SMILES strings stand for the structures.

The first assay deals with NCIH82 cells. As to the kind of experiment: Cell proliferation experiment, NCI-H82. The format is cell-based, human. As to conditions: Homo sapiens, NCI-H82, 72 h, NCIH82 cells, 72 h; read-out: Inhibitory activity IC50 of tested compounds on NCIH82 cells. A digest of the protocol: (§1)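 Alamar blue fluorescence after 72 h of compound exposure; IC50 from 4-parameter fit (Min, Max, Slope). Cells passaged ≥2 times, log-phase, 96-well, duplicate wells, 5-fold serial dilutions.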
With `CC[C@@H]1C(=O)N(C)c2cnc(Nc3ccc(C(=O)NC4CCN(CCNCCCOCCCC#Cc5cccc6c5CN(C5CCC(=O)NC5=O)C6=O)CC4)cc3OC)nc2N1C1CCCC1` (stereo partly shown) [Compound 899], the 50% inhibitory concentration (IC50) was no more than 1000 nM.

With `CC[C@@H]1C(=O)N(C)c2cnc(Nc3ccc(C(=O)NC4CCN(CCN(C)CCCOCCCC#Cc5cccc6c5CN(C5CCC(=O)NC5=O)C6=O)CC4)cc3OC)nc2N1C1CCCC1` (stereo partly shown) [Compound 900], the IC50 is no more than 1000 nM.

With `CC[C@@H]1C(=O)N(C)c2cnc(Nc3ccc(C(=O)NC4CCN(CCCNCCCOCCCC#Cc5cccc6c5CN(C5CCC(=O)NC5=O)C6=O)CC4)cc3OC)nc2N1C1CCCC1` (stereo partly shown) [Compound 901], the IC50 is no more than 1000 nM.

For the compound `CC[C@@H]1C(=O)N(C)c2cnc(Nc3ccc(C(=O)NC4CCN(CCOCCCC#Cc5cccc6c5CN(C5CCC(=O)NC5=O)C6=O)CC4)cc3OC)nc2N1C1CCCC1` (stereo partly shown) [Compound 902], the half-inhibitory concentration (IC50) was no more than 1000 nM.

The subject of the next assay is Daudi cells. As to the kind of experiment: Cell proliferation experiment, Daudi. Type of assay: cell-based, human. Conditions: Homo sapiens, Daudi, 72 h, Daudi cells, 72 h; read-out: Inhibitory activity IC50 of tested compounds on Daudi cells. A digest of the protocol:
as §1
Turning to `CC[C@@H]1C(=O)N(C)c2cnc(Nc3ccc(C(=O)NC4CCN(CCNCCCOCCCC#Cc5cccc6c5CN(C5CCC(=O)NC5=O)C6=O)CC4)cc3OC)nc2N1C1CCCC1` (stereo partly shown) [Compound 899], the IC50 was no more than 100 nM.

In the case of `CC[C@@H]1C(=O)N(C)c2cnc(Nc3ccc(C(=O)NC4CCN(CCN(C)CCCOCCCC#Cc5cccc6c5CN(C5CCC(=O)NC5=O)C6=O)CC4)cc3OC)nc2N1C1CCCC1` (stereo partly shown) [Compound 900], the 50% inhibitory concentration (IC50) was no more than 100 nM.

In the case of `CC[C@@H]1C(=O)N(C)c2cnc(Nc3ccc(C(=O)NC4CCN(CCOCCCC#Cc5cccc6c5CN(C5CCC(=O)NC5=O)C6=O)CC4)cc3OC)nc2N1C1CCCC1` (stereo partly shown) [Compound 902], the half-inhibitory concentration (IC50) was no more than 100 nM.

The next assay concerns HT-29 cells. As to the kind of experiment: Cell proliferation experiment, HT-29. Type of assay: cell-based. As to conditions: Homo sapiens; HT-29 cells, 72 h; read-out: Inhibitory activity IC50 of tested compounds on HT-29 cells. The method in brief:
as §1
On to `CC[C@@H]1C(=O)N(C)c2cnc(Nc3ccc(C(=O)NC4CCN(CCNCCCOCCCC#Cc5cccc6c5CN(C5CCC(=O)NC5=O)C6=O)CC4)cc3OC)nc2N1C1CCCC1` (stereo partly shown) [Compound 899], for which the half-maximal inhibitory concentration (IC50) is no more than 300 nM.

As for `CC[C@@H]1C(=O)N(C)c2cnc(Nc3ccc(C(=O)NC4CCN(CCN(C)CCCOCCCC#Cc5cccc6c5CN(C5CCC(=O)NC5=O)C6=O)CC4)cc3OC)nc2N1C1CCCC1` (stereo partly shown) [Compound 900], the IC50 was no more than 300 nM.

In the case of `CC[C@@H]1C(=O)N(C)c2cnc(Nc3ccc(C(=O)NC4CCN(CCCNCCCOCCCC#Cc5cccc6c5CN(C5CCC(=O)NC5=O)C6=O)CC4)cc3OC)nc2N1C1CCCC1` (stereo partly shown) [Compound 901], the IC50 was in the range of 300 to 1000 nM.

Turning to `CC[C@@H]1C(=O)N(C)c2cnc(Nc3ccc(C(=O)NC4CCN(CCOCCCC#Cc5cccc6c5CN(C5CCC(=O)NC5=O)C6=O)CC4)cc3OC)nc2N1C1CCCC1` (stereo partly shown) [Compound 902], the IC50 was no more than 300 nM.

For another assay, the system named is U-87MG cells. As to the kind of experiment: Cell proliferation experiment, U-87MG. Type of assay: cell-based. As to conditions: Homo sapiens; U-87MG cells, 72 h; read-out: Inhibitory activity IC50 of tested compounds on U-87MG cells. The method in brief: as §1
In the case of `CC[C@@H]1C(=O)N(C)c2cnc(Nc3ccc(C(=O)NC4CCN(CCNCCCOCCCC#Cc5cccc6c5CN(C5CCC(=O)NC5=O)C6=O)CC4)cc3OC)nc2N1C1CCCC1` (stereo partly shown) [Compound 899], the IC50 is no more than 100 nM.

In the case of `CC[C@@H]1C(=O)N(C)c2cnc(Nc3ccc(C(=O)NC4CCN(CCN(C)CCCOCCCC#Cc5cccc6c5CN(C5CCC(=O)NC5=O)C6=O)CC4)cc3OC)nc2N1C1CCCC1` (stereo partly shown) [Compound 900], the IC50 was no more than 100 nM.

With `CC[C@@H]1C(=O)N(C)c2cnc(Nc3ccc(C(=O)NC4CCN(CCCNCCCOCCCC#Cc5cccc6c5CN(C5CCC(=O)NC5=O)C6=O)CC4)cc3OC)nc2N1C1CCCC1` (stereo partly shown) [Compound 901], the IC50 was in the range of 100 to 500 nM.

Consider `CC[C@@H]1C(=O)N(C)c2cnc(Nc3ccc(C(=O)NC4CCN(CCOCCCC#Cc5cccc6c5CN(C5CCC(=O)NC5=O)C6=O)CC4)cc3OC)nc2N1C1CCCC1` (stereo partly shown) [Compound 902], for which the IC50 was no more than 100 nM.

The test system of another assay is HL-60 cells. As to the kind of experiment: Cell proliferation experiment, HL-60. Conditions: Homo sapiens, 72 h, read-out: Inhibitory activity IC50 of tested compounds on HL-60 cells. Type of assay: cell-based. On the procedure:
Reagents: RPMI-1640 medium, McCoy's 5A medium, IMDM medium, MEM medium, L-15 medium, fetal bovine serum. Penicillin-Streptomycin double antibody, trypsin, etc., 2-mercaptoethanol, NEAA, pyruvate, etc.
The cells were cultured in conventional ways, and the cells should be passed at least 2 generations before plating. Cells at the logarithmic growth phase were collected, prepared into single cell suspensions and counted. The concentration of cells was adjusted to the desired concentration, and cells were inoculated into a 96-well cell culture plate at 100 μl per well. 100 μL of complete medium of the test compound were added to each well, set up 2 duplicate wells for each concentration, and diluted with a 5-fold gradient, and continued to culture for 72 h. All cells were subjected to IC50 test for corresponding samples. The experimental results are shown in Test Example 4.
The fluorescence intensity of each well was detected using the Alarm blue method, and IC50 was calculated.
IC50 was calculated according to the following formula:
Y=Max+(Min−Max)/[1+(X/IC50)×Slope]
wherein Min, Max and Slope represent the minimum, maximum and slope respectively.
Turning to `CC[C@@H]1C(=O)N(C)c2cnc(Nc3ccc(C(=O)NC4CCN(CCNCCCOCCCC#Cc5cccc6c5CN(C5CCC(=O)NC5=O)C6=O)CC4)cc3OC)nc2N1C1CCCC1` (stereo partly shown) [Compound 899], the IC50 is no more than 1000 nM.

As to `CC[C@@H]1C(=O)N(C)c2cnc(Nc3ccc(C(=O)NC4CCN(CCN(C)CCCOCCCC#Cc5cccc6c5CN(C5CCC(=O)NC5=O)C6=O)CC4)cc3OC)nc2N1C1CCCC1` (stereo partly shown) [Compound 900], the IC50 is no more than 1000 nM.

`CC[C@@H]1C(=O)N(C)c2cnc(Nc3ccc(C(=O)NC4CCN(CCCNCCCOCCCC#Cc5cccc6c5CN(C5CCC(=O)NC5=O)C6=O)CC4)cc3OC)nc2N1C1CCCC1` (stereo partly shown) [Compound 901]: the half-maximal inhibitory concentration (IC50) is no more than 1000 nM.

As to `CC[C@@H]1C(=O)N(C)c2cnc(Nc3ccc(C(=O)NC4CCN(CCOCCCC#Cc5cccc6c5CN(C5CCC(=O)NC5=O)C6=O)CC4)cc3OC)nc2N1C1CCCC1` (stereo partly shown) [Compound 902], the half-maximal inhibitory concentration (IC50) is no more than 1000 nM.

In another assay the test system is MV4;11 cells. As to the kind of experiment: Cell proliferation experiment (Alamar blue, 72 h), MV4;11. The format is cell-based, human. Conditions: Homo sapiens, MV4-11, 72 h, MV4;11 cells, 72 h; read-out: Inhibitory activity IC50 of tested compounds on MV4;11 cells. The method in brief:
as §1
In the case of `CC[C@@H]1C(=O)N(C)c2cnc(Nc3ccc(C(=O)NC4CCN(CCNCCCOCCCC#Cc5cccc6c5CN(C5CCC(=O)NC5=O)C6=O)CC4)cc3OC)nc2N1C1CCCC1` (stereo partly shown) [Compound 899], the IC50 was no more than 100 nM.

As for `CC[C@@H]1C(=O)N(C)c2cnc(Nc3ccc(C(=O)NC4CCN(CCN(C)CCCOCCCC#Cc5cccc6c5CN(C5CCC(=O)NC5=O)C6=O)CC4)cc3OC)nc2N1C1CCCC1` (stereo partly shown) [Compound 900], the half-inhibitory concentration (IC50) was no more than 100 nM.

`CC[C@@H]1C(=O)N(C)c2cnc(Nc3ccc(C(=O)NC4CCN(CCCNCCCOCCCC#Cc5cccc6c5CN(C5CCC(=O)NC5=O)C6=O)CC4)cc3OC)nc2N1C1CCCC1` (stereo partly shown) [Compound 901]: the IC50 is no more than 100 nM.

In general, IC50 refers to the concentration that inhibits the measured activity by half.

These data come from US20230210999A1, “TARGETED PROTEASE DEGRADATION (TED) PLATFORM” (EUBULUS BIOTHERAPEUTICS INC., priority 2020, published 2023).
